The source of these data is US20080312271A1, “AZABENZIMIDAZOLYL COMPOUNDS” (Pfizer Inc., priority 2006, published 2008).

In general, EC50 refers to the concentration needed to bring the measured effect to its halfway point.

The experiment has as its target T1, mGluR2 receptor (metabotropic glutamate receptor 2) (Homo sapiens, UniProt Q14416).
T1 construct: expressed in transfected cells
Nature of the experiment: mGluR2 Potentiator Screen, FLIPR, EC10-EC20 glutamate challenge. It is filed as cell-based. A digest of the protocol:
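Potentiator assay in HEK cells stably expressing mGluR2 with Gα15, glutamine-depleted overnight, loaded with Fluo-4 plus probenecid and GPT/pyruvate to remove glutamate. Peak fluorescence ratio curve-fitted, with maximum set by on-plate standards.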

[1] abbreviates: mGluR2 potentiator screen, FLIPR, EC10-EC20 glutamate challenge.

Read-outs that look alike come from different tables or passages of the source. Some results are limits rather than exact numbers.

T1 sequence (Q14416 19-872, species assumed): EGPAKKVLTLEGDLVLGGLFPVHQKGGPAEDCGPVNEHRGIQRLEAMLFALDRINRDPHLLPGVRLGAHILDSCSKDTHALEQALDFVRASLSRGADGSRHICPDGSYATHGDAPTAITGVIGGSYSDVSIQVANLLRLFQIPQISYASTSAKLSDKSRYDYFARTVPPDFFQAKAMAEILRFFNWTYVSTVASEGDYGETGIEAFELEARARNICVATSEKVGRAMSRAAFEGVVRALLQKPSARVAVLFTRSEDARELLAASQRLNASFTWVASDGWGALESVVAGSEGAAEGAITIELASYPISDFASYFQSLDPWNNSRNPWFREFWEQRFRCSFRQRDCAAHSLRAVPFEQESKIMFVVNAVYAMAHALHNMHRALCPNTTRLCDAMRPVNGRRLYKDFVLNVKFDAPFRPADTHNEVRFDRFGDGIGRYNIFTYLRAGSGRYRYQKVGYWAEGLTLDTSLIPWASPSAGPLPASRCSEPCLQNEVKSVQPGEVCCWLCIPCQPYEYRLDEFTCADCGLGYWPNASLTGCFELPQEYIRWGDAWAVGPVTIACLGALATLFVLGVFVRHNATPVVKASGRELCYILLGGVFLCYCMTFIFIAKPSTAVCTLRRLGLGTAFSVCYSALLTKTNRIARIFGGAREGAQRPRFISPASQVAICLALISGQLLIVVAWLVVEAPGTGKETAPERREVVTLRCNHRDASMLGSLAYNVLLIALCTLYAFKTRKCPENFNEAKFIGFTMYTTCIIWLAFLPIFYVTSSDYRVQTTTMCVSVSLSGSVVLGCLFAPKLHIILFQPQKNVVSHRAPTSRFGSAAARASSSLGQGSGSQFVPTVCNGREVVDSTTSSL

`COc1cc(C(F)(F)F)ccc1[C@H]1CCN(Cc2nc3ncccc3n2C)C[C@H]1C` (single isomer, unassigned) [compound 130]: the EC50 is 787 nM.

For `C[C@@H]1CN(Cc2nc3ncccc3n2C)CC[C@@H]1c1ccc(OC(F)F)cc1Cl` (single isomer, unassigned) [compound 245], the EC50 under setting [1] came out at 262 nM.

In the case of `C[C@@H]1CN(Cc2nc3ncccc3n2C)CC[C@@H]1c1ccc(C(F)(F)F)cc1C(F)(F)F` (relative stereo) [compound 149], the EC50 is 24.8 nM.

For `C[C@@H]1CN(Cc2nc3ncccc3n2C)CC[C@@H]1c1ccc(OC(F)(F)F)cc1Cl` (single isomer, unassigned) [compound 255], the EC50 under setting [1] was found to be 76.9 nM.

With `Cn1c(CN2CCC(c3ccc(C(F)(F)F)cc3)CC2)nc2ccncc21` [compound 93], the EC50 is 196 nM.

Consider `Cc1ccc(C2CCN(Cc3nc4ncccc4n3C)CC2)cc1` [compound 104], for which the EC50 came to 710 nM.

With `CC(C)Oc1ccc([C@H]2CCN(Cc3nc4cnccc4n3C)C[C@H]2C)cc1F` (relative stereo) [compound 181], the EC50 was 1090 nM.

Consider `C[C@@H]1CN(Cc2nc3cnccc3n2C)CC[C@@H]1c1ccc(OC(F)(F)F)cc1F` (single isomer, unassigned) [compound 196], for which the 50% effective concentration (EC50) was 56 nM.

As to `COc1cc(C(F)(F)F)ccc1[C@H]1CCN(Cc2nc3cnccc3n2C)C[C@H]1C` (single isomer, unassigned) [compound 142], the EC50 was more than 314 nM.

Turning to `CC(C)Oc1cc(F)ccc1[C@H]1CCN(Cc2nc3ncccc3n2C)C[C@H]1C` (relative stereo) [compound 191], the EC50 stood at 610 nM.

With `CC(C)Oc1ccc([C@H]2CCN(Cc3nc4ncccc4n3C)C[C@H]2C)c(Cl)c1` (relative stereo) [compound 169], the EC50 came to 174 nM.

As to `Cn1c(CN2CCC(c3cc(Cl)ccc3F)CC2)nc2ncccc21` [compound 75], the EC50 was found to be 324 nM.

Turning to `Cn1c(CN2CCC(c3ccccc3C#N)CC2)nc2ncccc21` [compound 77], the EC50 is more than 5700 nM.

Regarding `Cn1c(CN2CCC(c3ccc(Cl)cc3F)CC2)nc2ncccc21` [compound 110], the EC50 amounted to 27.1 nM.

`Cn1c(CN2CCC(c3ccc(C(F)(F)F)cc3)C(C)(C)C2)nc2ncccc21` (stereo not drawn) [compound 76]: the EC50 amounted to 745 nM.

As for `C[C@@H]1CN(Cc2nc3cnccc3n2C)CC[C@@H]1c1ccc(OC(F)F)cc1Cl` (single isomer, unassigned) [compound 247], under setting [1], the EC50 is more than 1410 nM.

Regarding `Cc1cc(C(F)(F)F)ccc1C1CCN(Cc2nc3ncccc3n2C)CC1` [compound 243], the EC50 under setting [1] was determined as 51.1 nM.

With `C[C@@H]1CN(Cc2nc3ncccc3n2C)CC[C@@H]1c1ccc(F)cc1OC(F)F` (relative stereo) [compound 274], the half-maximal effective concentration (EC50) under setting [1] worked out at 75.5 nM.

For `C[C@@H]1CN(Cc2nc3cnccc3n2C)CC[C@@H]1c1ccc(OC(F)(F)F)cc1` (relative stereo) [compound 158], the EC50 came out at 262 nM.

For the compound `C[C@@H]1CN(Cc2nc3cnccc3n2C)CC[C@@H]1c1ccccc1F` (single isomer, unassigned) [compound 73], the EC50 stood at 242 nM.

For `C[C@@H]1CN(Cc2nc3ncccc3n2C)CC[C@@H]1c1ccc(F)c(F)c1F` (relative stereo) [compound 249], under setting [1], the concentration giving a half-maximal response (EC50) was 113 nM.
